From patent US11000543B2, “Substances containing AuCs and preparation method and use thereof” (Shenzhen Profound-View Pharma Tech Co., Ltd, priority 2017, dated 2021)

Assays:
Aβ(1-40) [1] = target: T1, Aβ(1-40) (Homo sapiens, UniProt P05067); assay: In vitro Aβ(1-40) aggregation kinetics, ThT fluorescent labeling method; format: biochemical; settings: L-NIBC 1.0 and 10.0 ppm; 20 μM Aβ(1-40), 37° C.
T1 construct: Freeze-dried powder of amyloid polypeptide Aβ(1-40) (Invitrogen Corp.); purchased Invitrogen Corp
T1 sequence (P05067 672-711 limits assumed): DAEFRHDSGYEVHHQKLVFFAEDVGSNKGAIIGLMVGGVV
Text: Thioflavin T (abbreviation: ThT) is a dye specifically for dyeing amyloid fibers. […] When it encounters amyloid polypeptides or proteins with a fiber structure, it will immediately couple with the amyloid polypeptides or proteins and its fluorescence intensity will increase exponentially. Just because of this property, ThT is widely used as a marker to monitor amyloidosis of peptides or proteins. The fibrosis process of Aβ(1-40) is also a nucleation-controlled polymerization process. Therefore, the growth curve of Aβ(1-40) fiber measured by ThT fluorescent labeling method is mainly divided into three stages: Initial stage, growth stage and platform stage. […] All the Aβ(1-40) PBS solutions for the experiments were prepared freshly. […] The samples were incubated continuously in a 96-well plate at 37° C. by ThT fluorescent labeling method, and monitored the fluorescence intensity by microplate reader once every 10 minutes.

Aβ(1-40) [2] = target: T1, Aβ(1-40); assay: AFM topography of Aβ(1-40) after 48 h coincubation; format: biochemical; settings: coincubated for 48 h
Procedure: Panel A is the AFM topography after Aβ(1-40) was incubated alone for 48 h. Panel B is an AFM topography after Aβ(1-40) was coincubated with L-NIBC for 48 h. Panel C and panel D are AFM topographies after Aβ(1-40) was coincubated with gold nanoparticles with an average particle size of 6.0 nm and 3.6 nm respectively (modified with L-NIBC) for 48 h. And […] is an AFM topography after Aβ(1-40) was coincubated with AuCs in an average particle size of 1.8 nm (modified with L-NIBC) for 48 h.

α-syn = target: T2, α-syn (Homo sapiens, UniProt P37840); assay: In vitro α-syn aggregation kinetics, ThT fluorescent labeling method; format: biochemical; settings: L-NIBC 1.0 and 10.0 ppm; 35 μM α-syn, 37° C.
T2 construct: purchased Bachem Corp
Text: Thioflavin T (abbreviation: ThT) is a dye for dyeing amyloid fibers specifically. […] When it encounters amyloid polypeptide or protein with a fiber structure, it will immediately couple with the amyloid polypeptides or proteins and its fluorescence intensity will increase exponentially. For this reason, ThT is widely used as markers to monitor amyloidosis of peptides or proteins. This embodiment utilizes ThT fluorescent labeling method to monitor the kinetics process of fibrosis aggregation of α-syn with the existence of AuCs. The specific experiment method was as follows:
Pretreatment of α-syn monomers: Freeze-dried powder (Bachem Corp.) of α-syn was dissolved in HFIP to obtain a 1 g/L α-syn solution. The solution was incubated at room temperature for 2-4 h after sealing, then blowed to dry HFIP by high-purity nitrogen in a fume hood. […]
Sample preparation and detection: Ligand-modified AuCs in different concentrations listed in Table 1 were added to 35 μM α-syn PBS solutions respectively, and incubated continuously in a 96-well plate at 37° C., by ThT fluorescent labeling method, and were monitored the fluorescence intensity by microplate reader once every 10 minutes. The kinetic process of α-syn aggregation was characterized through the change of fluorescence intensity of ThT. […]

[3] = test system: SH-SY5Y neuroblastoma cell line; assay: Aβ induced AD cell model, cell viability by CCK-8; format: cell-based; settings: 20 μM Aβ(1-40), 24 h; L-NIBC 20 ppm; particles 0.01-20 ppm
Procedure: The cell viability was used as an index in the experiment of this embodiment. […] The cells used in the experiment were SH-SY5Y neuroblastoma cell line. […] Specific method:
1) SH-sy5y cells (cells had passed to the sixth generation) in logarithmic growth phase were diluted with complete medium (MEM+10% FBS+1% penicillin−streptomycin) to get a cell suspension in a density of 5×10^4/mL. The suspension was inoculated 200 μL per well into a 96-well plate, and cultivated in an incubator with 5% CO2 at 37° C. A sample was added when the cells attached to the wells.
2) 100 μL ligand-modified AuCs samples or ligand-modified gold nanoparticles samples, at different particle sizes and at concentrations of 0.04 ppm, 0.4 ppm, 4 ppm, 20 ppm, 40 ppm and 80 ppm respectively, which were dissolved by maintenance medium (MEM+2% FBS+1% penicillin-streptomycin) were added into the incubated suspension obtained from Step 1). After incubating in the incubator for 2 h, 100 μL 80 μM Aβ(1-40) was added, and then the mixture was incubated in the incubator for 24 h. […] The culture medium was removed, maintenance medium (MEM) containing 10% CCK-8 at 100 μL/well was added and was incubated for 4 h, the absorbance of each well at 450 nm was measured to reflect the prevention and treatment effects of ligand-modified AuCs on Aβ(1-40) lesion.

effect on Aβ(1-40) amyloidosis kinetics (Aβ(1-40) [1]): no obvious effect
Aβ(1-40) fibers in AFM topography (Aβ(1-40) [2]): no obvious effect
effect on kinetics of α-syn aggregation (α-syn): did not have an obvious effect
Compound: CC(C)C(=O)N[C@@H](CS)C(=O)O [L-NIBC, N-isobutyryl-L-cysteine]
effect on cell viability in Aβ-induced AD cell model [3]: did not improve cell viability
